Data taken from PubChem BioAssay AID2060606 (Molecular Pharmacology Branch, DTP, NCI, 2025).

System: 922993-354-T-J3-PDC complex spheroids, viability, % test/control
Test: Anticancer human tumor 922993-354-T-J3-PDC patient-derived endometrial carcinoma cell line growth inhibition [CLK]
Details: for IC50: curve of first compound; for viability, T/C: stronger effect = lower value; active means viability on the fitted dose curve at most 10% of control; inactive means the rest
Outline: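 Multi-cell-type spheroids combined patient-derived tumor cells with HUVEC endothelial cells and human mesenchymal stem cells. Paired agents were dosed in half-log steps down from about clinical Cmax, or from 10 microM where Cmax was unknown.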

[1] = second compound 0.0316 µM, first compound 0.00949 µM
[2] = second compound 0.0316 µM, first compound 0.03 µM
[3] = second compound 0.0316 µM, first compound 0.0949 µM
[4] = second compound 0.0316 µM, first compound 0.3 µM
[5] = second compound 0.1 µM, first compound 0.00949 µM
[6] = second compound 0.1 µM, first compound 0.03 µM
[7] = second compound 0.1 µM, first compound 0.0949 µM
[8] = second compound 0.1 µM, first compound 0.3 µM
[9] = second compound 0.316 µM, first compound 0.00949 µM
[10] = second compound 0.316 µM, first compound 0.03 µM
[11] = second compound 0.316 µM, first compound 0.0949 µM
[12] = second compound 0.316 µM, first compound 0.3 µM
[13] = second compound 1 µM, first compound 0.00949 µM
[14] = second compound 1 µM, first compound 0.03 µM
[15] = second compound 1 µM, first compound 0.0949 µM
[16] = second compound 1 µM, first compound 0.3 µM
[17] = second compound 3.16 µM, first compound 0.00949 µM
[18] = second compound 3.16 µM, first compound 0.03 µM
[19] = second compound 3.16 µM, first compound 0.0949 µM
[20] = second compound 3.16 µM, first compound 0.3 µM
[21] = second compound 10 µM, first compound 0.00949 µM
[22] = second compound 10 µM, first compound 0.03 µM
[23] = second compound 10 µM, first compound 0.0949 µM
[24] = second compound 10 µM, first compound 0.3 µM
[25] = second compound 0.0316 µM, first compound 0.0316 µM
[26] = second compound 0.0316 µM, first compound 0.1 µM
[27] = second compound 0.0316 µM, first compound 0.316 µM
[28] = second compound 0.0316 µM, first compound 1 µM
[29] = second compound 0.0316 µM, first compound 3.16 µM
[30] = second compound 0.0316 µM, first compound 10 µM
[31] = second compound 0.1 µM, first compound 0.0316 µM
[32] = second compound 0.1 µM, first compound 0.1 µM
[33] = second compound 0.1 µM, first compound 0.316 µM
[34] = second compound 0.1 µM, first compound 1 µM
[35] = second compound 0.1 µM, first compound 3.16 µM
[36] = second compound 0.1 µM, first compound 10 µM
[37] = second compound 0.316 µM, first compound 0.0316 µM
[38] = second compound 0.316 µM, first compound 0.1 µM
[39] = second compound 0.316 µM, first compound 0.316 µM
[40] = second compound 0.316 µM, first compound 1 µM
[41] = second compound 0.316 µM, first compound 3.16 µM
[42] = second compound 0.316 µM, first compound 10 µM
[43] = second compound 1 µM, first compound 0.0316 µM
[44] = second compound 1 µM, first compound 0.1 µM
[45] = second compound 1 µM, first compound 0.316 µM
[46] = second compound 1 µM, first compound 1 µM
[47] = second compound 1 µM, first compound 3.16 µM
[48] = second compound 1 µM, first compound 10 µM
[49] = second compound 3.16 µM, first compound 0.0316 µM
[50] = second compound 3.16 µM, first compound 0.1 µM
[51] = second compound 3.16 µM, first compound 0.316 µM
[52] = second compound 3.16 µM, first compound 1 µM
[53] = second compound 3.16 µM, first compound 3.16 µM
[54] = second compound 3.16 µM, first compound 10 µM
[55] = second compound 10 µM, first compound 0.0316 µM
[56] = second compound 10 µM, first compound 0.1 µM
[57] = second compound 10 µM, first compound 0.316 µM
[58] = second compound 10 µM, first compound 1 µM
[59] = second compound 10 µM, first compound 3.16 µM
[60] = second compound 10 µM, first compound 10 µM
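Further: spheroids exposed to the agents for 7 days before readout.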

CC(C)CC(NC(=O)C(Cc1ccccc1)NC(=O)c1cnccn1)B(O)O (stereo not drawn) + CNC(=O)c1ccc(Nc2nc(OC3CCCC3)c3c(-c4ccc5nc(C)oc5c4)c[nH]c3n2)c(OC)c1
inactive: viability, T/C (second compound 0.0316 µM, first compound 0.000949 µM) 106% | viability, T/C (second compound 0.0316 µM, first compound 0.003 µM) 91.4% | viability, T/C [1] 53% | viability, T/C [2] 15% | viability, T/C (second compound 0.1 µM, first compound 0.000949 µM) 79.8% | viability, T/C (second compound 0.1 µM, first compound 0.003 µM) 65.5% | viability, T/C [5] 57.2% | viability, T/C [6] 10.3% | viability, T/C (second compound 0.316 µM, first compound 0.000949 µM) 80.2% | viability, T/C (second compound 0.316 µM, first compound 0.003 µM) 64.4% | viability, T/C [9] 35.2% | viability, T/C (second compound 1 µM, first compound 0.000949 µM) 36.8% | viability, T/C (second compound 1 µM, first compound 0.003 µM) 32.6% | viability, T/C [13] 14% | viability, T/C (second compound 3.16 µM, first compound 0.000949 µM) 30.9% | viability, T/C (second compound 3.16 µM, first compound 0.003 µM) 19.4% | viability, T/C (second compound 10 µM, first compound 0.000949 µM) 25% | viability, T/C (second compound 10 µM, first compound 0.003 µM) 15%
< 0.949 nM: IC50 (second compound 1 µM) | IC50 (second compound 3.16 µM) | IC50 (second compound 10 µM)
10.3 nM: IC50 (second compound 0.0316 µM)
11.1 nM: IC50 (second compound 0.1 µM)
active: viability, T/C [3] 1.67% | viability, T/C [4] 2.25% | viability, T/C [7] 2.17% | viability, T/C [8] 0.85% | viability, T/C [10] 6.18% | viability, T/C [11] 2.17% | viability, T/C [12] 0.48% | viability, T/C [14] 3.9% | viability, T/C [15] 0.77% | viability, T/C [16] 1.23% | viability, T/C [17] 2.49% | viability, T/C [18] 2.35% | viability, T/C [19] 0.79% | viability, T/C [20] 0.78% | viability, T/C [21] 3.13% | viability, T/C [22] 3.29% | viability, T/C [23] 0.81% | viability, T/C [24] 0.61%
5.27 nM: IC50 (second compound 0.316 µM)

CC1(C)CCC(CN2CCN(c3ccc(C(=O)NS(=O)(=O)c4ccc(NCC5CCOCC5)c([N+](=O)[O-])c4)c(Oc4cnc5[nH]ccc5c4)c3)CC2)=C(c2ccc(Cl)cc2)C1 + CNC(=O)c1ccc(Nc2nc(OC3CCCC3)c3c(-c4ccc5nc(C)oc5c4)c[nH]c3n2)c(OC)c1
< 31.6 nM: IC50 (second compound 1 µM) | IC50 (second compound 3.16 µM) | IC50 (second compound 10 µM)
inactive: viability, T/C [25] 108% | viability, T/C [26] 96% | viability, T/C [27] 102% | viability, T/C [28] 88% | viability, T/C [29] 108% | viability, T/C [30] 66.1% | viability, T/C [31] 108% | viability, T/C [32] 105% | viability, T/C [33] 110% | viability, T/C [34] 104% | viability, T/C [35] 113% | viability, T/C [36] 61.5% | viability, T/C [37] 69.8% | viability, T/C [38] 62.8% | viability, T/C [39] 61.3% | viability, T/C [40] 58.7% | viability, T/C [41] 64.4% | viability, T/C [42] 27.1% | viability, T/C [43] 36.3% | viability, T/C [44] 37.7% | viability, T/C [45] 27.1% | viability, T/C [46] 38.2% | viability, T/C [47] 31.8% | viability, T/C [48] 17.9% | viability, T/C [49] 29.6% | viability, T/C [50] 33.6% | viability, T/C [51] 28.6% | viability, T/C [52] 31.3% | viability, T/C [53] 29% | viability, T/C [54] 15.4% | viability, T/C [55] 31.4% | viability, T/C [56] 25.7% | viability, T/C [57] 26% | viability, T/C [58] 25% | viability, T/C [59] 29.4% | viability, T/C [60] 13.6%
4840 nM: IC50 (second compound 0.316 µM)
> 10000 nM: IC50 (second compound 0.0316 µM) | IC50 (second compound 0.1 µM)

CC1COCCN1c1cc(C2(S(C)(=N)=O)CC2)nc(-c2ccnc3[nH]ccc23)n1 (stereo not drawn) + CNC(=O)c1ccc(Nc2nc(OC3CCCC3)c3c(-c4ccc5nc(C)oc5c4)c[nH]c3n2)c(OC)c1
< 31.6 nM: IC50 (second compound 1 µM) | IC50 (second compound 3.16 µM) | IC50 (second compound 10 µM)
inactive: viability, T/C [25] 88.2% | viability, T/C [26] 108% | viability, T/C [27] 98.8% | viability, T/C [28] 115% | viability, T/C [29] 106% | viability, T/C [30] 104% | viability, T/C [31] 111% | viability, T/C [32] 119% | viability, T/C [33] 115% | viability, T/C [34] 116% | viability, T/C [35] 101% | viability, T/C [36] 80.5% | viability, T/C [37] 67.4% | viability, T/C [38] 56% | viability, T/C [39] 55% | viability, T/C [40] 66.9% | viability, T/C [41] 75.9% | viability, T/C [42] 40.5% | viability, T/C [43] 35.2% | viability, T/C [44] 33.1% | viability, T/C [45] 34.1% | viability, T/C [46] 34.7% | viability, T/C [47] 27% | viability, T/C [48] 14.7% | viability, T/C [49] 34.1% | viability, T/C [50] 32.8% | viability, T/C [51] 31.1% | viability, T/C [52] 32.3% | viability, T/C [53] 21.1% | viability, T/C [54] 9.92% | viability, T/C [55] 32% | viability, T/C [56] 27.5% | viability, T/C [57] 28.2% | viability, T/C [58] 27.5% | viability, T/C [59] 20.6% | viability, T/C [60] 9.29%
> 10000 nM: IC50 (second compound 0.0316 µM) | IC50 (second compound 0.1 µM) | IC50 (second compound 0.316 µM)

NC(=O)C(=Cn1cnc(-c2cc(C(F)(F)F)cc(C(F)(F)F)c2)n1)c1cncnc1 + CNC(=O)c1ccc(Nc2nc(OC3CCCC3)c3c(-c4ccc5nc(C)oc5c4)c[nH]c3n2)c(OC)c1
467 nM: IC50 (second compound 0.1 µM)
36.4 nM: IC50 (second compound 10 µM)
583 nM: IC50 (second compound 0.0316 µM)
44.6 nM: IC50 (second compound 3.16 µM)
48.6 nM: IC50 (second compound 1 µM)
active: viability, T/C [24] 8.4% | viability, T/C (second compound 10 µM, first compound 0.949 µM) 11.9% | viability, T/C (second compound 10 µM, first compound 3 µM) 3.1%
inactive: viability, T/C [1] 120% | viability, T/C [2] 123% | viability, T/C [3] 98.3% | viability, T/C [4] 57.7% | viability, T/C (second compound 0.0316 µM, first compound 0.949 µM) 50.4% | viability, T/C (second compound 0.0316 µM, first compound 3 µM) 34.6% | viability, T/C [5] 107% | viability, T/C [6] 120% | viability, T/C [7] 102% | viability, T/C [8] 54% | viability, T/C (second compound 0.1 µM, first compound 0.949 µM) 49.4% | viability, T/C (second compound 0.1 µM, first compound 3 µM) 36.7% | viability, T/C [9] 81.1% | viability, T/C [10] 99% | viability, T/C [11] 71% | viability, T/C [12] 37.3% | viability, T/C (second compound 0.316 µM, first compound 0.949 µM) 41.7% | viability, T/C (second compound 0.316 µM, first compound 3 µM) 40.2% | viability, T/C [13] 56.8% | viability, T/C [14] 63.2% | viability, T/C [15] 36.2% | viability, T/C [16] 18% | viability, T/C (second compound 1 µM, first compound 0.949 µM) 29% | viability, T/C (second compound 1 µM, first compound 3 µM) 22.2% | viability, T/C [17] 58.8% | viability, T/C [18] 67.8% | viability, T/C [19] 24.5% | viability, T/C [20] 12.4% | viability, T/C (second compound 3.16 µM, first compound 0.949 µM) 18.9% | viability, T/C (second compound 3.16 µM, first compound 3 µM) 6.38% | viability, T/C [21] 46.6% | viability, T/C [22] 65.3% | viability, T/C [23] 20.4%
205 nM: IC50 (second compound 0.316 µM)
